Literature values in patent US20260232672A1, “COMPOSITIONS AND METHODS OF TREATING FEMALE SEXUAL DYSFUNCTION AND FEMALE SEXUAL AROUSAL DISORDER” (Daré Bioscience, Inc., priority 2023, published 2026).

Tested on: pre- and postmenopausal women afflicted with broad-spectrum FSD
Settings: oral

Structure (SMILES): CCCc1nn(C)c2c(=O)[nH]c(-c3cc(S(=O)(=O)N4CCN(C)CC4)ccc3OCC)nc12.O=C(O)CC(O)(CC(=O)O)C(=O)O [oral sildenafil citrate, 1-[4-ethoxy-3-(6,7-dihydro-1-methyl-7-oxo-3-propyl-1H-pyrazolo[4,3-d]pyrimidin-5-yl)phenylsulfonyl]-4-methylpiperazine citrate salt]
- rates of side effects (doses 25 mg-100 mg, previous clinical trials in women): high rates of side effects
- efficacy versus placebo (published placebo-controlled trials): marginal efficacy versus placebo
